Data from US20210349099A1, “CANCER BIOMARKERS AND METHODS OF USE THEREOF” (X4 Pharmaceuticals, Inc., priority 2017, published 2021).

Test system: melanoma tumor gene signatures
Experiment: NanoString nCounter gene expression of FFPE melanoma biopsies
Assay type: in vivo, human
From the text: FFPE gene expression analysis: For each gene biomarker, RNA was extracted from FFPE slides using Qiagen's AllPrep kit (Cat. 80234) and analyzed using NanoString nCounter platform with the PanCancer Immune probe set. Raw counts were normalized using the geometric mean of 30 housekeeping genes and the normalized data from both panels were merged and analyzed with nSolver software (Version 4.0).
Interferon gene signature was based on Ayers et al (JCI 2017) and calculated in the following manner. For each patient (pt) sample, the geometric mean was calculated from the normalized counts for six genes (IFN-γ, CXCL9, CXCL10, HLA-DRA, IDO1, STAT1) and then the mean was Log 10-transformed to generate the Gene Expression score. […] Gene scores were calculated for each patient sample from the geometric mean of normalized counts for IFN-gamma, CXCL9, CXCL10, HLA-DRA, IDO1, and STAT1. The mean was Log 10-transformed to generate the Gene Expression score.
The tumor inflammatory signature (TIS) was calculated from 18 genes by taking the Log 10 of the geometric mean of the normalized counts across each gene set to generate a “Gene signature score”. See, e.g., Righi E, Kashiwagi S, Yuan J, et al. “CXCL12/CXCR4 Blockade Induces Multimodal Antitumor Effects That Prolong Survival in an Immunocompetent Mouse Model of Ovarian Cancer,” Cancer Res. 2011; 71(16):5522-5534.
Raw counts were normalized using the geometric mean of housekeeping genes. The Interferon-gamma gene signature score was assessed by a procedure essentially as described in Ayers et al. (2017) J. Clin. Invest. 127:2930-2940.
To perform the CTL signature measurement, RNA was extracted from FFPE slides using Qiagen's AllPrep kit and analyzed using the NanoString nCounter platform with the PanCancer Immune probe set. Raw counts were normalized using the geometric mean of housekeeping genes. NanoString nCounter validation is described at Malkov et al. (2009) BMC Research Notes; 2:80; accessed Nov. 2, 2017 at https://bmcresnotes.biomedcentral.com/articles/10.1186/1756-0500-2-80; Waggott et al. (2012) Bioinformatics 28:1546-1548; see also nCounter® Analysis System User Manual (July 2015), published by NanoString Technologies®, Inc., accessed Nov. 2, 2017, at https://www.nanostring.com/application/files/7114/8942/6665/MAN-C0035-05_nCounter Analysis_System_GEN2.pdf.
For each gene biomarker, RNA was extracted from FFPE slides using Qiagen's AllPrep kit (Cat. 80234) and analyzed using NanoString nCounter platform with the PanCancer Immune probe set. Raw counts were normalized using the geometric mean of housekeeping genes, as described above.
Antigen Presentation/Processing Gene Signature was calculated by taking the geometric mean of the normalized counts for eighteen (18) genes (B2M, CD74, CTSL, CTSS, HLA-DMA, HLA-DMB, HLA-DOB, HLA-DPA1, HLA-DPB1, HLA-DQA1, HLA-DQB1, HLA-DRA, HLA-DRB1, HLA-DRB3, PSMB8, PSMB9, TAP1, and TAP2) and then Log 10-transforming the mean to generate the Gene Expression Score.
Tumor Inflammation Signature was calculated by taking the geometric mean of the normalized counts for eighteen (18) genes (CCL5, CD27, CD274, CD276, CD8A, CMKLR1, CXCL9, CXCR6, HLA-DQA1, HLA-DRB1, HLA-E, IDO1, LAG3, NKG7, PDCD1LG2, PSMB10, STAT1, and TIGIT) and then Log 10-transforming the mean to generate the Gene Expression Score.

[1] = pre- vs post-dosing, five patients
[2] = pre- vs post-dosing, patients 2, 3, 5, 8, and 9

Structure (SMILES): NCCCCN(Cc1nc2ccccc2[nH]1)[C@H]1CCCc2cccnc21 [X4P-001]
- CD8A expression (NanoString nCounter): increased
- CD8B expression (NanoString nCounter): increased
- granzyme B expression (NanoString nCounter): increased
- Tumor Inflammation Signature Gene Expression Score, Post-X4P-001 Score (Patient 2, Pre-Dose Score 2.123, Log 10 of geometric mean of 18 genes): 2.225
- Antigen Presentation/Processing Gene Expression Score, Post-X4P-001 Score (Patient 2, Pre-Dose Score 2.94, Log 10 of geometric mean of 18 genes): 2.986
- Tumor Inflammation Signature Gene Expression Score, Post-X4P-001 Score (Patient 3, Pre-Dose Score 2.647): 2.798
- Antigen Presentation/Processing Gene Expression Score, Post-X4P-001 Score (Patient 3, Pre-Dose Score 3.139): 3.324
- Tumor Inflammation Signature Gene Expression Score, Post-X4P-001 Score (Patient 5, Pre-Dose Score 2.871): 3.257
- Antigen Presentation/Processing Gene Expression Score, Post-X4P-001 Score (Patient 5, Pre-Dose Score 3.519): 3.806
- Tumor Inflammation Signature Gene Expression Score, Post-X4P-001 Score (Patient 8, Pre-Dose Score 2.508): 2.834
- Antigen Presentation/Processing Gene Expression Score, Post-X4P-001 Score (Patient 8, Pre-Dose Score 3.134): 3.518
- Tumor Inflammation Signature Gene Expression Score, Post-X4P-001 Score (Patient 9, Pre-Dose Score 2.233): 2.597
- Antigen Presentation/Processing Gene Expression Score, Post-X4P-001 Score (Patient 9, Pre-Dose Score 3.082): 3.495
- cytotoxic T lymphocyte (CTL) gene signature gene expression score [1]: increased for each one of the five patients
- interferon gamma (IFN-γ) gene signature Gene Expression Score [1]: increased for each one of the five patients
- Antigen Presentation/Processing Gene Expression Score, change [2]: increased for each patient
- Tumor Inflammation Signature Gene Expression Score, change [2]: increased for each patient
